The values that follow come from PMC9178793, “A Direct Assay for Measuring the Activity and Inhibition of Coactivator-Associated Arginine Methyltransferase 1” (Biochemistry, 2022).

Usually IC50 stands for the concentration that inhibits the measured activity by half.

Molecules are shown by their SMILES. Where two headings read alike, the source gives them in different places. *1 amine or outer side, *2 acyl side, *3 side chain or, on linkers, in order; H or OH if unused. Where a SMILES comes first, the peptide text is derived from it. [ ]: non-standard residue; d: D form. X1 = N=C(NCCC[C@H](N[*:1])C(=O)[*:2])NCCC[C@H]1O[C@@H](n2cnc3c(N)ncnc32)[C@H](O)[C@@H]1O

Test [1] addresses T1, CARM1 (Mus musculus, UniProt Q9WVG6).
T1 construct: corresponding to the PRMT core (residues 130–497, mmCARM1_130–497) were amplified by PCR; GST (followed by TEV protease cleavage site) (N, cleaved yes); made in house; host or cells: Sf9 insect cells (baculovirus)
T1 sequence (Q9WVG6 130-497): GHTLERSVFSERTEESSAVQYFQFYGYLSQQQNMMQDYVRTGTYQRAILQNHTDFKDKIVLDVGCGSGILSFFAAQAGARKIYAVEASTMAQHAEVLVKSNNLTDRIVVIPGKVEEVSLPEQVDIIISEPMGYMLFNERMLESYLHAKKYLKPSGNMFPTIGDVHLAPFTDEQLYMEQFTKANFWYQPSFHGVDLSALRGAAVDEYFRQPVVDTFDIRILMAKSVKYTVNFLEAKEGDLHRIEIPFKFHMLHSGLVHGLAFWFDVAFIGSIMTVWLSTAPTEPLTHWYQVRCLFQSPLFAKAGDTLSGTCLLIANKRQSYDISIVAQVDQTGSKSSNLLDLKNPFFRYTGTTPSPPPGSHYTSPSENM
As to the kind of experiment: MRM LC-MS CARM1 enzyme inhibition assay (PABP1 456–466 peptide substrate, direct detection of aDMA product). The test is classed as biochemical. The conditions noted are these: 286 nM CARM1, 12 μM PABP1 456–466, 10 μM AdoMet, 15 min preincubation, 2 h room temperature; duplicate data, ± SD. From the text:
The positive clones were confirmed by sequencing (GATC). The sequences were subcloned in a pDEST20 vector using an LR reaction. The resulting recombinant protein is harboring an amino-terminal glutathione S-transferase (GST) tag followed by a Tobacco etch virus (TEV) protease cleavage site. […] Bacmid DNA purified from recombination-positive white colonies was transfected into Sf9 cells using the Lipofectin reagent (Invitrogen). Viruses were harvested 10 days after transfection. Sf9 cells were grown at 300 K in suspension culture in Grace medium (Gibco) using Bellco spinner flasks. sf9 cell culture (1 L, 0.8 × 10^6 cells·mL^-1) was infected with recombinant […]1 virus with an infection multiplicity of 1. The cells were harvested 48 h post-infection. Cell lysis was performed by sonication in 50 mL of buffer A [50 mM Tris-HCl pH 8.0, 250 mM NaCl, 5% glycerol, 5 mM TCEP, 0.01% NP40 and anti-proteases (Roche, Complete, EDTA-free)], and cellular debris was sedimented by centrifugation of the lysate at 40 000g for 30 min. The supernatant was incubated overnight at 277 K with 2 mL of glutathione Sepharose resin (GE Healthcare). After a short centrifugation, the supernatants were discarded, and the beads were poured in an Econo-column (Bio-Rad). After two washing steps with 10 mL of buffer A, 2 mL of buffer A supplemented with in-house produced TEV protease was applied to the columns and digestion was performed for 4 h at 303 K with gentle mixing. The digest was concentrated with an Amicon Ultra 10K (Milipore), loaded on a gel-filtration column (HiLoad 16/60 Superdex S200, GE Healthcare), and eluted at 1 mL·min^-1 with buffer B [20 mM Tris-HCl pH 8.0, 100 mM NaCl, 1 mM TCEP] using an ÄKTA Purifier device (GE Healthcare). Fractions containing […]1_130-497 were pooled and concentrated to 7.75 mg·mL^-1. […] The reaction was subsequently quenched by the addition of 30 μL of the reaction mixture to 10 μL of a 0.1% formic acid solution (pH 2). […] The supernatant (60 μL) was transferred to a new 96-well plate and analyzed. […] The products were eluted with a water-acetonitrile gradient moving from 20 to 92% acetonitrile (0.1% FA) over 6 min at a flow rate of 0.5 mL·min^-1. The injection volume was 10 μL. The ionization source was operated in positive mode using an interface voltage of 4.5 kV, nebulizing gas at 1.5 L/min, drying gas at 15 L/min, and a desolvation line (DL) temperature of 250 °C. The MRM parameter optimization was performed using both the analyte (PABP1^456-466-R^460-aDMA) and hexadeuterated internal standard (PABP1^456-466-R^460-d6-aDMA). The results of this optimization, which include precursor ion scanning, collision energy, and Q1 and Q3 scanning, are summarized in Table 1. […] For commercially available inhibitors that were not soluble in water, stock solutions were prepared in DMSO and diluted to a final DMSO concentration of <1% in the assay mixture. […] The mixture was incubated for 2 h at room temperature, and the reaction was subsequently quenched by the addition of 30 μL of the reaction mixture to 10 μL of a 0.1% formic acid solution (pH 2). […] The supernatant (60 μL) was transferred to a new 96-well plate and analyzed by LC-MS as described above. Negative controls (no enzyme) and positive controls (no inhibitor) were included in each plate. For quantification of the methylated product, the area ratio of analyte to internal standard was calculated and quantified using the linearity line obtained with the reference standards. […] To obtain kcat with units of s^-1, the maximal velocity (Vmax) is divided by 3600. [drawing 3] 3 The percentage inhibition was plotted as a function of inhibitor concentration and fit using a nonlinear regression analysis of the sigmoidal dose-response curve generated using the normalized data and a variable slope following eq 4. [drawing 4] 4 where Y is the percent inhibition, X is the logarithmic concentration of the inhibitors, and Hill Slope is the slope factor or Hill coefficient. […]

Test [2] concerns the target T2, CARM1 (Homo sapiens, UniProt Q86X55).
T2 sequence (Q86X55 1-608): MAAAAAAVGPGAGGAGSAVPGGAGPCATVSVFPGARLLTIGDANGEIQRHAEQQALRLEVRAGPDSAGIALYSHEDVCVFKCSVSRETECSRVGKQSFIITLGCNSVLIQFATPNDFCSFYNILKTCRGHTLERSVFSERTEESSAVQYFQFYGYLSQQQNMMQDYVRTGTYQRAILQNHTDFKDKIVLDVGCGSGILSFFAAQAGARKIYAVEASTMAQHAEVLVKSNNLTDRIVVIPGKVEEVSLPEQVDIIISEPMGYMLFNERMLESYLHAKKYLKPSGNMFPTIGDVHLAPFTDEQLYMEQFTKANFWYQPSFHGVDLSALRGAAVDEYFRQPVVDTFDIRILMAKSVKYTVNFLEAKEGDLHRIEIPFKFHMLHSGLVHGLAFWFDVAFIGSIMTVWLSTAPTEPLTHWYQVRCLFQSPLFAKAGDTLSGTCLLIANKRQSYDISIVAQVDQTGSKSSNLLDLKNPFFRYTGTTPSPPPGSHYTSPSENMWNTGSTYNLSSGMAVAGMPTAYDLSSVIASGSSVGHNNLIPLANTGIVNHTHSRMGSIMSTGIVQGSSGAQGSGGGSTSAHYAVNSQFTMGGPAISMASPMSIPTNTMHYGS
As to the kind of experiment: commercially available chemiluminescent antibody-based ELISA kit (histone H3-derived peptide, aDMA at H3-R17). The test is classed as biochemical.
Protocol: We next applied the assay in assessing the inhibition of CARM1 by a number of known inhibitors of varying potencies including AdoHcy (1), MS023 (2), MS049 (3), TP064 (4), and a series of recently reported peptidomimetic CARM1 inhibitors (5–9) (Figure 3).[20],[32]−[35] For the purpose of generating IC50 curves for these inhibitors, concentration ranges were set according to previously reported IC50 values. The inhibitors were first incubated with CARM1 for 15 min at room temperature before the enzyme reaction was initiated by the addition of the AdoMet/PABP1^456–466 substrate mixture. On the basis of the residual CARM1 activity measured, inhibition curves were generated and the IC50 values were determined (Table 3). To evaluate the suitability of the method for the determination of CARM1 inhibition, the IC50 values were compared with those obtained using a commercially available chemiluminescent ELISA kit. […] In addition, the peptide substrate and detection method employed in the ELISA kit are inherently different. The kit employs a histone H3-derived peptide that is covalently linked to the bottom of the well plate, and as such, no substrate concentration is given. Product formation in turn is detected using specific antibodies that recognize aDMA formation at arginine residue H3-R^17.

The target in test [3] is T2, CARM1. The conditions noted are these: chemiluminescent ELISA kit, H3-derived peptide, 1 μM AdoMet; cited from earlier work. Background: ELISA stands for enzyme-linked immunosorbent assay.

On to `Nc1ncnc2c1ncn2[C@@H]1O[C@H](CSCC[C@H](N)C(=O)O)[C@@H](O)[C@H]1O` [Compound 1, S-adenosyl-L-homocysteine, reference compound], for which the IC50 on CARM1 [1] was 873 ± 339 nM.

Regarding `CC(C)Oc1ccc(-c2c[nH]cc2CN(C)CCN)cc1` [Compound 2, reference compound], the IC50 at CARM1 [2] came to 101 ± 11 nM; on CARM1 [1], 327 ± 34 nM.

For the molecule `CNCCN1CCC(c2cc(CN(C)C(=O)c3cccc(Oc4ccccc4)c3)ccn2)CC1` [Compound 4, reference compound], the IC50 on CARM1 [1] came to 162 ± 10 nM.

Take `CC(=O)N[C@@H](CO)C(=O)N[C@H](C(=O)NCC(=O)NCC(=O)N[C@@H](CCCCN)C(=O)N[C@@H](C)C(=O)N1CCC[C@H]1C(=O)N[C@@H](CCCNC(=N)NCCC[C@H]1O[C@@H](n2cnc3c(N)ncnc32)[C@H](O)[C@@H]1O)C(=O)N[C@@H](CCCCN)C(=O)N[C@@H](CCC(N)=O)C(=O)N[C@@H](CC(C)C)C(=O)N[C@@H](C)C(=O)N[C@H](C(=O)N[C@@H](CCCCN)C(=O)N[C@@H](C)C(=O)N[C@@H](C)C(N)=O)[C@@H](C)O)[C@@H](C)O` [Compound 5] (Ac-STGGKAP[X1]KQLATKAA-NH2): the IC50 at CARM1 [1] came out at 770 ± 98 nM.

Turning to `CC(=O)N[C@@H](CCCCN)C(=O)N[C@@H](C)C(=O)N1CCC[C@H]1C(=O)N[C@@H](CCCNC(=N)NCCC[C@H]1O[C@@H](n2cnc3c(N)ncnc32)[C@H](O)[C@@H]1O)C(=O)N[C@@H](CCCCN)C(=O)N[C@@H](CCC(N)=O)C(=O)N[C@@H](CC(C)C)C(=O)N[C@@H](C)C(N)=O` [Compound 6] (Ac-KAP[X1]KQLA-NH2), the IC50 at CARM1 [1] is 403 ± 28 nM.

In the case of `CC(=O)N[C@@H](C)C(=O)N1CCC[C@H]1C(=O)N[C@@H](CCCNC(=N)NCCC[C@H]1O[C@@H](n2cnc3c(N)ncnc32)[C@H](O)[C@@H]1O)C(=O)N[C@@H](CCCCN)C(=O)N[C@@H](CCC(N)=O)C(=O)N[C@@H](CC(C)C)C(N)=O` [Compound 7] (Ac-AP[X1]KQL-NH2), on CARM1 [1], the concentration for half-maximal inhibition (IC50) came to 617 ± 57 nM.

On to `CC(=O)N1CCC[C@H]1C(=O)N[C@@H](CCCNC(=N)NCCC[C@H]1O[C@@H](n2cnc3c(N)ncnc32)[C@H](O)[C@@H]1O)C(=O)N[C@@H](CCCCN)C(=O)N[C@@H](CCC(N)=O)C(N)=O` [Compound 8], for which, at CARM1 [1], the IC50 was 1460 ± 21 nM.

For the molecule `CSCC[C@H](NC(=O)[C@@H](NC(=O)[C@H](CO)NC(=O)[C@H](Cc1ccccc1)NC(=O)[C@@H]1CCCN1C(=O)[C@@H]1CCCN1C(=O)[C@H](CCCNC(=N)NCCC[C@H]1O[C@@H](n2cnc3c(N)ncnc32)[C@H](O)[C@@H]1O)NC(=O)[C@@H]1CCCN1C(=O)[C@H](C)NC(=O)[C@H](C)NC(=O)[C@@H]1CCCN1C(C)=O)[C@@H](C)O)C(N)=O` [Compound 9] (Ac-PAAP[X1]PPFSTM-NH2), the half-maximal inhibitory concentration (IC50) at CARM1 [1] is 212 ± 25 nM; at CARM1 [3] it was 90 ± 16 nM.
